Several values for one entry are separate records, joined by “and”; a condition that tells them apart may be missing. Identical values can stand only once. Entries after “also recorded” stand apart in the source; their conditions may differ.
What was measured:
[1] = Pharmacokinetics of isatoribine in beagle dogs after oral dosing; details: both, dog, in vivo, 50 mg/kg
Description: The effect of a prodrug (val-isatoribine, 24) on the systemic exposure to isatoribine (21) after oral administration to beagle dogs was investigated. Isatoribine was prepared in sodium bicarbonate solution. Val-isatoribine and isatoribine were prepared as the following formulations, which were chosen to ensure solubility: Formulation 1: […] Formulation 2: […] Four male and four female adult beagle dogs weighing between 15 to 27 kg and approximately 1-2 years old were used at the beginning of the study. The animals were divided into 2 groups of 2 males and 2 females each. The test material was administered by gavage on Days 1 and 8, allowing a 7 day washout period between administrations. […] The plasma was frozen at −70° C. until analysis. The plasma was analyzed for isatoribine by an HPLC-MS/MS assay.

[2] = test system: human peripheral blood mononuclear cells (PBMC); experiment: PBMC assay of interferon alpha release (masking); format: cell-based; details: Homo sapiens, PBMC; Table 9; 100 μM; 24 hours exposure; same blood donor; read-out: Amount of INFa relative to that induced by isatoribine at 100 μM
interferon alpha = experiment: Interferon alpha plasma concentrations in mice; format: in vivo, mouse; details: for Mu-IFN-α plasma concentration, individual value / Mu-IFN-α plasma concentration, mean: mice
Source text: Not only can one measure the plasma concentrations of isatoribine arising from oral administration of the said prodrug(s) but also the extensive immunological research conducted in the mouse has provided reagents suitable for measuring the levels of interferon alpha, a cytokine of interest reflecting one of the desired biologic activities of isatoribine.

[3] = one vehicle dose, one oral 50 mg/kg dose 4 hours later, time 4.03 h (second dose)
[4] = one vehicle dose, one oral 50 mg/kg dose 4 hours later, time 4.08 h (second dose)
[5] = one vehicle dose, one oral 50 mg/kg dose 4 hours later, time 4.25 h (second dose)
[6] = one vehicle dose, one oral 50 mg/kg dose 4 hours later, time 8.00 h (second dose)
[7] = two oral 50 mg/kg doses 4 hours apart, time 0.08 h (first dose)
[8] = two oral 50 mg/kg doses 4 hours apart, time 0.50 h (first dose)
[9] = two oral 50 mg/kg doses 4 hours apart, time 1.00 h (first dose)
[10] = two oral 50 mg/kg doses 4 hours apart, time 3.00 h (first dose)
[11] = two oral 50 mg/kg doses 4 hours apart, time 4.00 h (first dose)
[12] = two oral 50 mg/kg doses 4 hours apart, time 4.03 h (second dose)
[13] = two oral 50 mg/kg doses 4 hours apart, time 4.08 h (second dose)
[14] = two oral 50 mg/kg doses 4 hours apart, time 4.25 h (second dose)
[15] = two oral 50 mg/kg doses 4 hours apart, time 5.00 h (second dose)
[16] = two oral 50 mg/kg doses 4 hours apart, time 5.50 h (second dose)
[17] = two oral 50 mg/kg doses 4 hours apart, time 7.00 h (second dose)
[18] = oral dosing, data of Tables 15, 16 and 17

Nc1nc2c(sc(=O)n2[C@@H]2O[C@H](CO)[C@@H](O)[C@H]2O)c(=O)[nH]1 [Compound 21, 7-thia-8-oxoguanosine]
AUC Ratio (to isatoribine in bicarbonate solution) [1]: 1.00
Cmax Ratio (to isatoribine in bicarbonate solution) [1]: 1.00
Emax at 100 µM [2]: 100%
Mu-IFN-α plasma concentration, individual value (interferon alpha; [3]): BQL^25 pg/mL
Mu-IFN-α plasma concentration, mean (interferon alpha; [3]): 0.00 pg/mL
Mu-IFN-α plasma concentration, individual value (interferon alpha; [4]): BQL^25 pg/mL
Mu-IFN-α plasma concentration, mean (interferon alpha; [4]): 0.00 pg/mL
Mu-IFN-α plasma concentration, individual value (interferon alpha; [5]): BQL^25 pg/mL
Mu-IFN-α plasma concentration, mean (interferon alpha; [5]): 0.00 pg/mL
Mu-IFN-α plasma concentration, mean (interferon alpha; one vehicle dose, one oral 50 mg/kg dose 4 hours later, time 4.50 h (second dose)): 44.4 pg/mL
Mu-IFN-α plasma concentration, individual value (interferon alpha; one vehicle dose, one oral 50 mg/kg dose 4 hours later, time 4.50 h (second dose), listed as Isatoribine, 50 mg/kg): BQL^100 pg/mL and BQL^25 pg/mL and 133.2 pg/mL
Mu-IFN-α plasma concentration, mean (interferon alpha; one vehicle dose, one oral 50 mg/kg dose 4 hours later, time 5.00 h (second dose)): 37.5 pg/mL
Mu-IFN-α plasma concentration, individual value (interferon alpha; one vehicle dose, one oral 50 mg/kg dose 4 hours later, time 5.00 h (second dose), listed as Isatoribine, 50 mg/kg): 74.9 pg/mL and BQL^50 pg/mL
Mu-IFN-α plasma concentration, mean (interferon alpha; one vehicle dose, one oral 50 mg/kg dose 4 hours later, time 5.50 h (second dose)): 0.00 pg/mL
Mu-IFN-α plasma concentration, individual value (interferon alpha; one vehicle dose, one oral 50 mg/kg dose 4 hours later, time 5.50 h (second dose), listed as Isatoribine, 50 mg/kg): BQL^250 pg/mL; also recorded: BQL^75 pg/mL; also recorded: BQL^25 pg/mL
Mu-IFN-α plasma concentration, mean (interferon alpha; one vehicle dose, one oral 50 mg/kg dose 4 hours later, time 6.00 h (second dose)): 0.00 pg/mL
Mu-IFN-α plasma concentration, individual value (interferon alpha; one vehicle dose, one oral 50 mg/kg dose 4 hours later, time 6.00 h (second dose), listed as Isatoribine, 50 mg/kg): BQL^25 pg/mL; also recorded: BQL^75 pg/mL
Mu-IFN-α plasma concentration, mean (interferon alpha; one vehicle dose, one oral 50 mg/kg dose 4 hours later, time 7.00 h (second dose)): 0.00 pg/mL
Mu-IFN-α plasma concentration, individual value (interferon alpha; one vehicle dose, one oral 50 mg/kg dose 4 hours later, time 7.00 h (second dose), listed as Isatoribine, 50 mg/kg): BQL^50 pg/mL; also recorded: BQL^25 pg/mL
Mu-IFN-α plasma concentration, individual value (interferon alpha; [6]): BQL^25 pg/mL
Mu-IFN-α plasma concentration, mean (interferon alpha; [6]): 0.00 pg/mL
Mu-IFN-α plasma concentration, mean (interferon alpha; two oral 50 mg/kg doses 4 hours apart, time 0.00 h (first dose)): 0.00 pg/mL
Mu-IFN-α plasma concentration, individual value (interferon alpha; two oral 50 mg/kg doses 4 hours apart, time 0.00 h (first dose), listed as Isatoribine, 50 mg/kg): BQL^50 pg/mL; also recorded: BQL^125 pg/mL
Mu-IFN-α plasma concentration, mean (interferon alpha; two oral 50 mg/kg doses 4 hours apart, time 0.03 h (first dose)): 0.00 pg/mL
Mu-IFN-α plasma concentration, individual value (interferon alpha; two oral 50 mg/kg doses 4 hours apart, time 0.03 h (first dose), listed as Isatoribine, 50 mg/kg): BQL^25 pg/mL; also recorded: BQL^250 pg/mL
Mu-IFN-α plasma concentration, individual value (interferon alpha; [7]): BQL^25 pg/mL
Mu-IFN-α plasma concentration, mean (interferon alpha; [7]): 0.00 pg/mL
Mu-IFN-α plasma concentration, mean (interferon alpha; two oral 50 mg/kg doses 4 hours apart, time 0.25 h (first dose)): 0.00 pg/mL
Mu-IFN-α plasma concentration, individual value (interferon alpha; two oral 50 mg/kg doses 4 hours apart, time 0.25 h (first dose), listed as Isatoribine, 50 mg/kg): BQL^50 pg/mL; also recorded: BQL^25 pg/mL
Mu-IFN-α plasma concentration, individual value (interferon alpha; [8]): BQL^25 pg/mL
Mu-IFN-α plasma concentration, mean (interferon alpha; [8]): 0.00 pg/mL
Mu-IFN-α plasma concentration, individual value (interferon alpha; [9]): BQL^25 pg/mL
Mu-IFN-α plasma concentration, mean (interferon alpha; [9]): 0.00 pg/mL
Mu-IFN-α plasma concentration, mean (interferon alpha; two oral 50 mg/kg doses 4 hours apart, time 1.50 h (first dose)): 0.00 pg/mL
Mu-IFN-α plasma concentration, individual value (interferon alpha; two oral 50 mg/kg doses 4 hours apart, time 1.50 h (first dose), listed as Isatoribine, 50 mg/kg): BQL^100 pg/mL; also recorded: BQL^25 pg/mL
Mu-IFN-α plasma concentration, mean (interferon alpha; two oral 50 mg/kg doses 4 hours apart, time 2.00 h (first dose)): 0.00 pg/mL
Mu-IFN-α plasma concentration, individual value (interferon alpha; two oral 50 mg/kg doses 4 hours apart, time 2.00 h (first dose), listed as Isatoribine, 50 mg/kg): BQL^25 pg/mL; also recorded: BQL^75 pg/mL
Mu-IFN-α plasma concentration, individual value (interferon alpha; [10]): BQL^25 pg/mL
Mu-IFN-α plasma concentration, mean (interferon alpha; [10]): 0.00 pg/mL
Mu-IFN-α plasma concentration, individual value (interferon alpha; [11]): BQL^25 pg/mL
Mu-IFN-α plasma concentration, mean (interferon alpha; [11]): 0.00 pg/mL
Mu-IFN-α plasma concentration, individual value (interferon alpha; [12]): BQL^25 pg/mL
Mu-IFN-α plasma concentration, mean (interferon alpha; [12]): 0.00 pg/mL
Mu-IFN-α plasma concentration, individual value (interferon alpha; [13]): BQL^25 pg/mL
Mu-IFN-α plasma concentration, mean (interferon alpha; [13]): 0.00 pg/mL
Mu-IFN-α plasma concentration, individual value (interferon alpha; [14]): BQL^25 pg/mL
Mu-IFN-α plasma concentration, mean (interferon alpha; [14]): 0.00 pg/mL
Mu-IFN-α plasma concentration, mean (interferon alpha; two oral 50 mg/kg doses 4 hours apart, time 4.50 h (second dose)): 0.00 pg/mL
Mu-IFN-α plasma concentration, individual value (interferon alpha; two oral 50 mg/kg doses 4 hours apart, time 4.50 h (second dose), listed as Isatoribine, 50 mg/kg): BQL^50 pg/mL; also recorded: BQL^37.5 pg/mL
Mu-IFN-α plasma concentration, individual value (interferon alpha; [15]): BQL^50 pg/mL
Mu-IFN-α plasma concentration, mean (interferon alpha; [15]): 0.00 pg/mL
Mu-IFN-α plasma concentration, individual value (interferon alpha; [16]): BQL^37.5 pg/mL
Mu-IFN-α plasma concentration, mean (interferon alpha; [16]): 0.00 pg/mL
Mu-IFN-α plasma concentration, mean (interferon alpha; two oral 50 mg/kg doses 4 hours apart, time 6.00 h (second dose)): 0.00 pg/mL
Mu-IFN-α plasma concentration, individual value (interferon alpha; two oral 50 mg/kg doses 4 hours apart, time 6.00 h (second dose), listed as Isatoribine, 50 mg/kg): BQL^50 pg/mL; also recorded: BQL^41.3 pg/mL; also recorded: BQL^37.5 pg/mL
Mu-IFN-α plasma concentration, individual value (interferon alpha; [17]): BQL^50 pg/mL
Mu-IFN-α plasma concentration, mean (interferon alpha; [17]): 0.00 pg/mL
Mu-IFN-α plasma concentration, mean (interferon alpha; two oral 50 mg/kg doses 4 hours apart, time 8.00 h (second dose)): 0.00 pg/mL
Mu-IFN-α plasma concentration, individual value (interferon alpha; two oral 50 mg/kg doses 4 hours apart, time 8.00 h (second dose), listed as Isatoribine, 50 mg/kg): BQL^50 pg/mL; also recorded: BQL^25 pg/mL
mice with detectable interferon in their plasma (interferon alpha; [18]): 4 of the 114
proportion of mice exhibiting an interferon response (interferon alpha; [18]): 4%

From patent US7858637B2, “Administration of TLR7 ligands and prodrugs thereof for treatment of infection by hepatitis C virus” (priority 2003, dated 2010)
